The values below are quoted from earlier work in patent US10392474B2, “Anionic linear polyglycerol derivatives, a method for manufacturing and applications” (FREIE UNIVERSITAET BERLIN, priority 2015, dated 2019).

For the data set the following is noted: after subcutaneous administration.

For orientation: half-life means the time in which the quantity being followed falls by half. With `CO[C@H]1O[C@H](COS(=O)(=O)O)[C@@H](O[C@@H]2O[C@@H](C(=O)O)[C@@H](O[C@H]3O[C@H](COS(=O)(=O)O)[C@@H](O[C@@H]4O[C@H](C(=O)O)[C@@H](O[C@H]5O[C@H](COS(=O)(=O)O)[C@@H](O)[C@H](O)[C@H]5NS(=O)(=O)O)[C@H](O)[C@H]4O)[C@H](OS(=O)(=O)O)[C@H]3NS(=O)(=O)O)[C@H](O)[C@H]2OS(=O)(=O)O)[C@H](O)[C@H]1NS(=O)(=O)O` [fondaparinux], the half-life is 17 h.
